Measured values published in US20250101041A1, “POSITIVE ALLOSTERIC MODULATORS OF THE MUSCARINIC ACETYLCHOLINE RECEPTOR M4” (Vanderbilt University, priority 2022, published 2025).

Biological target: T1, human mAChR M4 (Homo sapiens, UniProt P08173)
T1 construct: expressed in transfected cells; host or cells: CHO-K1 (American Type Culture Collection), stably expressing hM4 and Gqi5
T1 sequence (P08173 1-479): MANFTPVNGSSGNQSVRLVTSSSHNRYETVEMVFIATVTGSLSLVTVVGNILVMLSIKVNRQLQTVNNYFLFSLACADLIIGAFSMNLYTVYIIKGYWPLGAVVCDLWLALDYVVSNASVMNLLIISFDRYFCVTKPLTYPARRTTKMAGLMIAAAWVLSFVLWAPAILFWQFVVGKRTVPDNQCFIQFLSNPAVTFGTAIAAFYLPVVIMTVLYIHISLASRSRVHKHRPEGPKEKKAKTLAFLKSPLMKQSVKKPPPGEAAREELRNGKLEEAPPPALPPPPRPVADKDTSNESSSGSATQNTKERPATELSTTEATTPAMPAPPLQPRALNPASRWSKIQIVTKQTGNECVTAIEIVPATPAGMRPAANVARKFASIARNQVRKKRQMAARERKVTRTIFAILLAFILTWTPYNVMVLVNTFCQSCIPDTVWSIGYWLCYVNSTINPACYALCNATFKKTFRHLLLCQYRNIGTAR
Assay: mAChR M4 cell-based functional assay: calcium mobilization (Fluo-4, FDSS), potentiation of EC20 acetylcholine response in hM4-Gqi5 CHO-K1 cells
Details: human M4; for Emax at 30 µM: CHO-K1, % ACh maximum at 30 μM; for EC50: potentiation of EC20 acetylcholine response, calcium mobilization
Outline: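 CHO-K1 cells stably co-expressing human M4 and chimeric Gqi5, loaded with Fluo-4 AM (50 min, 37 °C). Compounds in 11-point 1:3 series added first; EC20 acetylcholine added at 144 s and again at 230 s. Calcium read on FDSS at 1 Hz; EC50 and Emax from four-parameter logistic fit of potentiated EC20 response.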

Row | Emax at 30 µM | EC50 | SMILES
1 | 79% | 652 nM | Cc1cc2nccc(=O)n2nc1N1CCc2ncc(N3CCOC(c4ccccc4)C3)cc2C1 (stereo not drawn) [Compound 2-66, 8-methyl-7-(3-(2-phenylmorpholino)-7,8-dihydro-1,6-naphthyridin-6(5H)-yl)-4H-pyrimido[1,2-b]pyridazin-4-one]
2 | 95% | 25 nM | Cc1cc2nccc(=O)n2nc1N1CCc2ncc(Nc3ccccc3Cl)cc2C1 [Compound 2-67, 7-(3-((2-chlorophenyl)amino)-7,8-dihydro-1,6-naphthyridin-6(5H)-yl)-8-methyl-4H-pyrimido[1,2-b]pyridazin-4-one]
3 | 96% | 113 nM | Cc1cc2nccc(=O)n2nc1N1CCc2ncc(N3CCOC(C)(C)C3)cc2C1 [Compound 2-68, 7-(3-(2,2-dimethylmorpholino)-7,8-dihydro-1,6-naphthyridin-6(5H)-yl)-8-methyl-4H-pyrimido[1,2-b]pyridazin-4-one]
4 | 96% | 20 nM | Cc1ccc(F)cc1Nc1cnc2c(c1)CN(c1nn3c(=O)ccnc3cc1C)CC2 [Compound 2-69, 7-(3-((5-fluoro-2-methylphenyl)amino)-7,8-dihydro-1,6-naphthyridin-6(5H)-yl)-8-methyl-4H-pyrimido[1,2-b]pyridazin-4-one]
5 | 94% | 85 nM | COc1ccc(F)c(Nc2cnc3c(c2)CN(c2nn4c(=O)ccnc4cc2C)CC3)c1 [Compound 2-70, 7-(3-((2-fluoro-5-methoxyphenyl)amino)-7,8-dihydro-1,6-naphthyridin-6(5/)-yl)-8-methyl-4H-pyrimido[1,2-b]pyridazin-4-one]
6 | 97% | 82 nM | Cc1cc2nccc(=O)n2nc1N1CCc2ncc(Nc3cccc(OC(F)F)c3)cc2C1 [Compound 2-71, 7-(3-((3-(difluoromethoxy)phenyl)amino)-7,8-dihydro-1,6-naphthyridin-6(5H)-yl)-8-methyl-4H-pyrimido[1,2-b]pyridazin-4-one]
7 | 69% | 549 nM | Cc1cc2nccc(=O)n2nc1N1CCc2ncc(Nc3cccc4c3OCCO4)cc2C1 [Compound 2-72, 7-(3-((2,3-dihydrobenzo[b][1,4]dioxin-5-yl)amino)-7,8-dihydro-1,6-naphthyridin-6(5H)-yl)-8-methyl-4H-pyrimido[1,2-b]pyridazin-4-one]
8 | 62% | 398 nM | COc1cc(F)ccc1Nc1cnc2c(c1)CN(c1nn3c(=O)ccnc3cc1C)CC2 [Compound 2-74, 7-(3-((4-fluoro-2-methoxyphenyl)amino)-7,8-dihydro-1,6-naphthyridin-6(5H)-yl)-8-methyl-4H-pyrimido[1,2-b]pyridazin-4-one]
9 | 93% | 17 nM | Cc1ccccc1Nc1cnc2c(c1)CN(c1nn3c(=O)ccnc3cc1C)CC2 [Compound 2-75, 8-methyl-7-(3-(o-tolylamino)-7,8-dihydro-1,6-naphthyridin-6(5H)-yl)-4H-pyrimido[1,2-b]pyridazin-4-one]
10 | 76% | 5340 nM | Cc1cc2nccc(=O)n2nc1N1CCc2ncc(N3CCOC(c4ccccn4)C3)cc2C1 (stereo not drawn) [Compound 2-76, 8-methyl-7-(3-(2-(pyridin-2-yl)morpholino)-7,8-dihydro-1,6-naphthyridin-6(5H)-yl)-4H-pyrimido[1,2-b]pyridazin-4-one]
11 | 80% | 1270 nM | Cc1cc2nccc(=O)n2nc1N1CCc2ncc(N3CCOC(c4cccnc4)C3)cc2C1 (stereo not drawn) [Compound 2-77, 8-methyl-7-(3-(2-(pyridin-3-yl)morpholino)-7,8-dihydro-1,6-naphthyridin-6(5H)-yl)-4H-pyrimido[1,2-b]pyridazin-4-one]
12 | 103% | 102 nM | Cc1cc2nccc(=O)n2nc1N1CCc2ncc(Nc3cccnc3F)cc2C1 [Compound 2-78, 7-(3-((2-fluoropyridin-3-yl)amino)-7,8-dihydro-1,6-naphthyridin-6(5H)-yl)-8-methyl-4H-pyrimido[1,2-b]pyridazin-4-one]
13 | 99% | 20 nM | Cc1cc2nccc(=O)n2nc1N1CCc2ncc(Nc3cccc(F)c3)cc2C1 [Compound 2-79, 7-(3-((3-fluorophenyl)amino)-7,8-dihydro-1,6-naphthyridin-6(5H)-yl)-8-methyl-4H-pyrimido[1,2-b]pyridazin-4-one]
14 | 97% | 47 nM | Cc1cc2nccc(=O)n2nc1N1CCc2ncc(Nc3cccc(C#N)c3)cc2C1 [Compound 2-80, 3-((6-(8-methyl-4-oxo-4H-pyrimido[1,2-b]pyridazin-7-yl)-5,6,7,8-tetrahydro-1,6-naphthyridin-3-yl)amino)benzonitrile]
15 | 85% | 230 nM | Cc1cc2nccc(=O)n2nc1N1CCc2ncc(Nc3cc(F)ccc3C#N)cc2C1 [Compound 2-81, 4-fluoro-2-((6-(8-methyl-4-oxo-4H-pyrimido[1,2-b]pyridazin-7-yl)-5,6,7,8-tetrahydro-1,6-naphthyridin-3-yl)amino)benzonitrile]
16 | 79% | 489 nM | COc1cc(Cl)cc(Nc2cnc3c(c2)CN(c2nn4c(=O)ccnc4cc2C)CC3)c1 [Compound 2-82, 7-(3-((3-chloro-5-methoxyphenyl)amino)-7,8-dihydro-1,6-naphthyridin-6(5H)-yl)-8-methyl-4H-pyrimido[1,2-b]pyridazin-4-one]
17 | 59% | 639 nM | Cc1nc(-c2cccc(Nc3cnc4c(c3)CN(c3nn5c(=O)ccnc5cc3C)CC4)c2)cs1 [Compound 2-83, 8-methyl-7-(3-((3-(2-methylthiazol-4-yl)phenyl)amino)-7,8-dihydro-1,6-naphthyridin-6(5H)-yl)-4H-pyrimido[1,2-b]pyridazin-4-one]
18 | 64% | 1910 nM | COc1cccc(C2CN(c3cnc4c(c3)CN(c3nn5c(=O)ccnc5cc3C)CC4)CCO2)c1 (stereo not drawn) [Compound 2-84, 7-(3-(2-(3-methoxyphenyl)morpholino)-7,8-dihydro-1,6-naphthyridin-6(5H)-yl)-8-methyl-4H-pyrimido[1,2-b]pyridazin-4-one]
19 | 95% | 22 nM | Cc1cc2nccc(=O)n2nc1N1CCc2ncc(N3CCc4ccccc43)cc2C1 [Compound 2-85, 7-(3-(indolin-1-yl)-7,8-dihydro-1,6-naphthyridin-6(5H)-yl)-8-methyl-4H-pyrimido[1,2-b]pyridazin-4-one]
20 | 87% | 1830 nM | Cc1cc2nccc(=O)n2nc1N1CCc2ncc(NCC3CCCOC3)cc2C1 (stereo not drawn) [Compound 2-86, 8-methyl-7-(3-(((tetrahydro-2H-pyran-3-yl)methyl)amino)-7,8-dihydro-1,6-naphthyridin-6(5H)-yl)-4H-pyrimido[1,2-b]pyridazin-4-one]
21 | 99% | 228 nM | Cc1cc2nccc(=O)n2nc1N1CCc2ncc(Nc3ccc(F)nc3)cc2C1 [Compound 2-87, 7-(3-((6-fluoropyridin-3-yl)amino)-7,8-dihydro-1,6-naphthyridin-6(5H)-yl)-8-methyl-4H-pyrimido[1,2-b]pyridazin-4-one]
22 | 106% | 173 nM | Cc1cc2nccc(=O)n2nc1N1CCc2ncc(Nc3cccnc3)cc2C1 [Compound 2-88, 8-methyl-7-(3-(pyridin-3-ylamino)-7,8-dihydro-1,6-naphthyridin-6(5H)-yl)-4H-pyrimido[1,2-b]pyridazin-4-one]
23 | 93% | 332 nM | Cc1cc2nccc(=O)n2nc1N1CCc2ncc(NCC3CC3)cc2C1 [Compound 2-89, 7-(3-((cyclopropylmethyl)amino)-7,8-dihydro-1,6-naphthyridin-6(5H)-yl)-8-methyl-4H-pyrimido[1,2-b]pyridazin-4-one]
24 | 69% | 798 nM | Cc1cc2nccc(=O)n2nc1N1CCc2ncc(NCC(C)C)cc2C1 [Compound 2-90, 7-(3-(isobutylamino)-7,8-dihydro-1,6-naphthyridin-6(5H)-yl)-8-methyl-4H-pyrimido[1,2-b]pyridazin-4-one]
25 | 80% | 1820 nM | Cc1cc2nccc(=O)n2nc1N1CCc2ncc(NCC3CCOCC3)cc2C1 [Compound 2-91, 8-methyl-7-(3-(((tetrahydro-2H-pyran-4-yl)methyl)amino)-7,8-dihydro-1,6-naphthyridin-6(5H)-yl)-4H-pyrimido[1,2-b]pyridazin-4-one]
26 | 70% | 863 nM | CCN(CC)c1cnc2c(c1)CN(c1nn3c(=O)ccnc3cc1C)CC2 [Compound 2-92, 7-(3-(diethylamino)-7,8-dihydro-1,6-naphthyridin-6(5H)-yl)-8-methyl-4H-pyrimido[1,2-b]pyridazin-4-one]
27 | 75% | 1170 nM | Cc1cc2nccc(=O)n2nc1N1CCc2ncc(N3CCOC(c4ccncc4)C3)cc2C1 (stereo not drawn) [Compound 2-93, 8-methyl-7-(3-(2-(pyridin-4-yl)morpholino)-7,8-dihydro-1,6-naphthyridin-6(5H)-yl)-4H-pyrimido[1,2-b]pyridazin-4-one]
